Data from patent publication US20230218631A1 (priority 2020, published 2023).

System: EHMT2/G9A, H3K9me2
[1] = 4-week CIE vs Air, same animals, FIG. 1C

CCO [ethanol]
EHMT2/G9A in dorsal striatum [1]: no changes
H3K9me2 in dorsal striatum [1]: no changes
reduction of H3K9me2 levels in NAc (4-week CIE vs Air, FIG. 1B): ~40%
total histone H3 protein in NAc (4-week CIE vs Air, FIG. 1B): no changes
reduction in NAc EHMT2/G9A protein levels (4 weeks CIE vs Air, immunoblot, FIG. 1B): > 30%
